Measurements as given in article PMC12380353, “MK-8527 is a novel inhibitor of HIV-1 reverse transcriptase translocation with potential for extended-duration dosing” (PLOS Biology, 2025).

Biological target: T1, human DNA polymerase α (Homo sapiens, UniProt P09884)
T1 sequence (P09884 1-1462): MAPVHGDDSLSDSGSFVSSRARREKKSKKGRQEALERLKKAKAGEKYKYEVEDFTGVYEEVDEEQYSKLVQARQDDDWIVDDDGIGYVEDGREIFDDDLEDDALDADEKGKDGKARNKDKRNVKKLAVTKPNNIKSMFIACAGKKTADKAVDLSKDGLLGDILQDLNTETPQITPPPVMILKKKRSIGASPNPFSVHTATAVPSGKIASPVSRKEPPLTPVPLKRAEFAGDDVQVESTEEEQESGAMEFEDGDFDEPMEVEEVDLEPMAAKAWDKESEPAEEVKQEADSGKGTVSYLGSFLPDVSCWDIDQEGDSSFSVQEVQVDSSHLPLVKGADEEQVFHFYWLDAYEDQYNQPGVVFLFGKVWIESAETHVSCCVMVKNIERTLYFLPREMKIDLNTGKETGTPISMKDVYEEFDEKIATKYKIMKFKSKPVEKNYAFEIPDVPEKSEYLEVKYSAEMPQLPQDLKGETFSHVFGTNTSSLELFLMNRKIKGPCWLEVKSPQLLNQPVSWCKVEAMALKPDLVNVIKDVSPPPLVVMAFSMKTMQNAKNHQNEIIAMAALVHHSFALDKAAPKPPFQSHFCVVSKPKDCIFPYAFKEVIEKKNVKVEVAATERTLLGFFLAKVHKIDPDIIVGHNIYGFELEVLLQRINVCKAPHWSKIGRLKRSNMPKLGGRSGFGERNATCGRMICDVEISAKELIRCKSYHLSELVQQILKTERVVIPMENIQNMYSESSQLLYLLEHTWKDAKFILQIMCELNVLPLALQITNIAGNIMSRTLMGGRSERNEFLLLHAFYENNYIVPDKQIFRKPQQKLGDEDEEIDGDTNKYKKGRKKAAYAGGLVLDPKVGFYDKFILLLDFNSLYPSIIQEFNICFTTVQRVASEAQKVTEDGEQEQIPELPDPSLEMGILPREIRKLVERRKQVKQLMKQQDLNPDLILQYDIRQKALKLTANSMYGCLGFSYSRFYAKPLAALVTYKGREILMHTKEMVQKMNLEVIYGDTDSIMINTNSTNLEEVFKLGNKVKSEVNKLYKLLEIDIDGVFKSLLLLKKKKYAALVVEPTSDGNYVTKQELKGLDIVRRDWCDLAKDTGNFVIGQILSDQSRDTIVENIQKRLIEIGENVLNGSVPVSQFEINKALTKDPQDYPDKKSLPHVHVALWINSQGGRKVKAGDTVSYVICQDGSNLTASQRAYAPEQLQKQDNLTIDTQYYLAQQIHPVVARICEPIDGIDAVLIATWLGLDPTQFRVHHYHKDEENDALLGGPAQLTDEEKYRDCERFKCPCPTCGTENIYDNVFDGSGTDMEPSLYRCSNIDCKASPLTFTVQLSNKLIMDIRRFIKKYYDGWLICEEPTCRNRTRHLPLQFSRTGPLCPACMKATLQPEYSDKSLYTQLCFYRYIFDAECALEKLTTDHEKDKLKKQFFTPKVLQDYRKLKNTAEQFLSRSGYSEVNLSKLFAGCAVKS
Assay: Human DNA polymerase α inhibition assay
Assay type: biochemical
Details: top concentration 200 µM
Protocol: The activities of human DNA polymerases α, β, and γ were measured in radiolabeled nucleotide incorporation assays. TP was prepared as a 10-point titration with 3-fold serial dilution in water. Reaction buffers for the DNA polymerase α and β assays both contained 20 mM Tris pH 7.5, 10 mM MgCl2, 50 μM EDTA, 200 μg/mL bovine serum albumin (BSA), 2 mM dithiothreitol (DTT), 1.6 μM each of dNTP (dATP, dCTP, dGTP, and dTTP), 20 μCi/mL [α33P]dATP, 0.1 mg/mL gapped activated fish sperm DNA template, test compound, and 0.005 U/μL DNA polymerase α or 0.0025 U/μL DNA polymerase β. The reaction buffer for DNA polymerase γ contained 20 mM Tris pH 8, 10 mM MgCl2, 50 mM KCl, 100 μg/mL BSA, 2 mM β-mercaptoethanol, 10 μM of each dNTP (dATP, dCTP, dGTP, and dTTP), 20 μCi/mL [α33P]dATP, 0.04 mg/mL gapped activated fish sperm DNA template, test compound, and 0.0003 μg/μL DNA polymerase γ. The 50-μL reactions were incubated at room temperature for 30 min (for β and γ) or 90 min (for α) before terminating with the addition of 50 μL 500 mM EDTA. The reaction mixtures were transferred to a Millipore DE81 filter plate (EMD Millipore; Hayward, CA), washed with 0.5 M sodium phosphate pH 7.0, and dried. After addition of 40 μL scintillant to each well, the incorporation of labeled dATP was determined with a microplate counter (TopCount NXT HTS; PerkinElmer, Shelton, CA, USA).

## C#C[C@]1(COP(=O)(O)OP(=O)(O)OP(=O)(O)O)O[C@@H](n2ccc3c(N)nc(Cl)nc32)C[C@@H]1O [MK-8527-TP]
  IC50: 95 µM
